# Measured values taken from patent US20260152751A1, “INTERFERING RNA FOR INHIBITING JAK1 GENE EXPRESSION AND USE THEREOF” (Jenkem Technology Co., Ltd. (BEIJING), priority 2024, published 2026).
# [Ψ] = pseudouridine; d = 2'-deoxy (DNA); r = 2'-OH (RNA)
# Assays:
# JAK1 gene [1] = assay: siRNA screening: qPCR of JAK1 relative expression in transfected 293T cells; format: cell-based, human; conditions: siRNA 50 nM, 48 h after transfection, GAPDH reference, siNC = 100.00
# Experimental: (§1) One day prior to transfection, 293T cells were seeded into a 24-well cell culture plate at 1×10^5 cells/well, and the culture medium was 500 μL of DMEM containing 10% FBS and 1% penicillin-streptomycin. Three replicate wells were made for each group. The culture plate was placed in an incubator with 5% CO2 at 37° C. for 24 h to allow the cells to adhere to the wall. On the day of transfection, the culture medium was changed to 450 μL of DMEM culture medium without antibiotics (containing 10% FBS). The siRNAs were diluted with 25 μL of Opti-MEM culture medium, and the control group was siNC at the same concentration; a Lipofectamine™RNAiMAX transfection reagent (Lip) was diluted with another 25 μL of Opti-MEM culture medium, and the mixture was left to stand at room temperature for 5 min; and the two dilutions were uniformly mixed and left to stand at room temperature for 5 min. 50 μL of the mixed solution described above was added to each well to obtain a final transfection volume of 500 μL, and the working concentration of the siRNA was 50 nM. After the cells were further cultured in an incubator with 5% CO2 at 37° C. for 48 h, the total RNA of the cells was extracted.
# RNA was extracted using Eastep™ Super total RNA extraction kit, with the detailed procedures as follows:
# 1) 300 μL of RNA lysis solution and 300 μL of RNA diluent were added into each well of the 24-well cell culture plate, and the mixture was uniformly mixed and subsequently transferred to a 1.5 mL centrifuge tube. The mixture was centrifuged at 14000 g for 10 min, and the supernatant was carefully pipetted into a new 1.5 mL centrifuge tube.
# 2) A 0.5-fold volume of absolute ethanol was added, and the mixture was uniformly mixed by allowing the tube to be repeatedly upside down 15-20 times. Subsequently, the mixture was transferred to a centrifuge column and centrifuged at 12000 g for 1 min. The filtrate was discarded.
# 3) 600 μL of RNA wash buffer was added, and the mixture was centrifuged at 12000 g for 1 min. The filtrate was discarded.
# 4) 50 μL of DNase I incubation buffer was added, followed by DNA digestion at room temperature for 15 min.
# 5) 600 μL of RNA wash buffer was added, the mixture was centrifuged at 12000 g for 1 min, and the filtrate was discarded. This procedure was repeated once. Subsequently, the mixture was centrifuged at 14000 g for 2 min to remove the residual RNA wash buffer, and then the centrifuge column was placed in a collection tube.
# 6) A proper amount of RNase-free H2O was added, and the mixture was left to stand for 15 min at room temperature, followed by centrifugation at 14000 g for 1 min. The RNA quality and concentration were detected using NanoDrop™. The extracted RNA was incubated at 70° C. for 5 min and immediately placed in an ice bath for 5 min for later use.
# (§2) 1) The RNA was reverse-transcribed into a cDNA template using the All-in-One First-Strand Synthesis MasterMix (LABLEAD, Cat. No.: F0202) kit. The reaction system was established according to Table 2, where all components were mixed uniformly and centrifuged to collect the liquid at the bottom of a tube, and the PCR program was run according to the settings of 37° C. for 2 min, 55° C. for 15 min, and 85° C. for 5 min, thereby giving the cDNA template.
# (§3) 2) The gene expression level was detected using the Taq SYBR® Green qPCR Premix (LABLEAD, Cat. No.: R0202) kit, and the qPCR system was established according to Table 3. All components were mixed uniformly and centrifuged to collect the liquid at the bottom of a tube, and the PCR program was run according to the following settings: • Step1: 95° C. 30 s; • Step2: 95° C. 10 s; • Step3: 60° C. 30 s+Plate Read; • Step4: Go to Step2, 40 times; • Step5: Melt Curve 65 to 95° C., increment 0.5° C., for 5 s+Plate Read.
# (§4) GAPDH was used as an endogenous reference to detect the relative expression level of JAK1 gene, and the sequences of the primers used are as follows: […]
# JAK1 gene [2] = assay: qPCR of JAK1 expression in HaCaT cells transfected with modified siJAK1; format: cell-based, human; conditions: siRNA 50 nM, 48 h after transfection, JAK1 by qPCR, siNC = 100.00
# Experimental: as §1, §2, §3, §4
# According to the method described in Example 2, human keratinocyte HaCaT cells were transfected with the modified siJAK1 at an siRNA working concentration of 50 nM. The expression level of JAK1 was detected by qPCR 48 h after the transfection. The controls included siNC and unmodified siJAK1 at the same concentration.
Substance,"Relative expression level of JAK1, Mean value (Mean) (JAK1 gene [1])","Relative expression level, Mean value (Mean) (JAK1 gene [2])"
"siJAK1-474: siRNA targeting JAK1; sense strand SEQ ID NO: 15 dTdT, antisense strand SEQ ID NO: 29 dTdT (sense GAAUAAAUGCAGUAUCUAA; antisense UUAGAUACUGCAUUUAUUC; listed as RNA, chemistry not fully specified)",20.24,
"siJAK1-826-m4: pseudouridine-modified siJAK1-826; sense strand SEQ ID NO: 49, antisense strand SEQ ID NO: 53 (sense GGCAUGGAACCAACGACAAUU; antisense UUGUCGUUGGUUCCAUGCCTT; sense: sugars from the 5' end r19 d2, [Ψ] at 5, backbone and T or U not given here; antisense: sugars from the 5' end r19 d2, [Ψ] at 1, 2, 4, 7, 8, 11, 12, 16, backbone not given here)",,13.55
"siJAK1-826: siRNA targeting JAK1; sense strand SEQ ID NO: 16 dTdT, antisense strand SEQ ID NO: 30 dTdT (sense GGCAUGGAACCAACGACAA; antisense UUGUCGUUGGUUCCAUGCC; listed as RNA, chemistry not fully specified)",14.18,13.33
"siJAK1-1131: siRNA targeting JAK1; sense strand SEQ ID NO: 17, antisense strand SEQ ID NO: 31 (sense GCGAUAUAUUCCAGAAACAUU; antisense UGUUUCUGGAAUAUAUCGCUU; listed as RNA, chemistry not fully specified)",23.55,
"siJAK1-2200: siRNA targeting JAK1; sense strand SEQ ID NO: 18 dTdT, antisense strand SEQ ID NO: 32 dTdT (sense GUUUCGAUCGGAUCCUCAA; antisense UUGAGGAUCCGAUCGAAAC; listed as RNA, chemistry not fully specified)",34.77,
"siJAK1-2714: siRNA targeting JAK1; sense strand SEQ ID NO: 19 dTdT, antisense strand SEQ ID NO: 33 dTdT (sense GGUGCUGUCUAGGCAAGAA; antisense UUCUUGCCUAGACAGCACC; listed as RNA, chemistry not fully specified)",19.12,
"siJAK1-3283-m10: pseudouridine-modified siJAK1-3283; sense strand SEQ ID NO: 50, antisense strand SEQ ID NO: 54 (sense AGAACAUUGUGAAGUACAATT; antisense UUGUACUUCACAAUGUUCUTT; sense: sugars from the 5' end r19 d2, [Ψ] at 7, 8, 10, 15, backbone not given here; antisense: sugars from the 5' end r19 d2, [Ψ] at 1, 2, 4, 7, 8, 14, 16, 17, 19, backbone not given here)",,15.89
"siJAK1-3283: siRNA targeting JAK1; sense strand SEQ ID NO: 20 dTdT, antisense strand SEQ ID NO: 34 dTdT (sense AGAACAUUGUGAAGUACAA; antisense UUGUACUUCACAAUGUUCU; listed as RNA, chemistry not fully specified)",16.41,14.73
"siJAK1-3630: siRNA targeting JAK1; sense strand SEQ ID NO: 21 dTdT, antisense strand SEQ ID NO: 35 dTdT (sense GAAUGUUUAAUGCAAUCUA; antisense UAGAUUGCAUUAAACAUUC; listed as RNA, chemistry not fully specified)",25.58,
"siJAK1-4096: siRNA targeting JAK1; sense strand SEQ ID NO: 22 dTdT, antisense strand SEQ ID NO: 36 dTdT (sense GGCACACUGUAGUGCUUAA; antisense UUAAGCACUACAGUGUGCC; listed as RNA, chemistry not fully specified)",38.56,
"siJAK1-4359: siRNA targeting JAK1; sense strand SEQ ID NO: 23, antisense strand SEQ ID NO: 37 (sense CACAUUAAUCAUAGAUAAAGA; antisense UUUAUCUAUGAUUAAUGUGCC; listed as RNA, chemistry not fully specified)",31.11,
"siJAK1-4389: siRNA targeting JAK1; sense strand SEQ ID NO: 24, antisense strand SEQ ID NO: 38 (sense GGACUUAGCCCUCAAAUUUCA; antisense AAAUUUGAGGGCUAAGUCCAU; listed as RNA, chemistry not fully specified)",27.56,
"siJAK1-4410: siRNA targeting JAK1; sense strand SEQ ID NO: 25 dTdT, antisense strand SEQ ID NO: 39 dTdT (sense CAGUAUCUAUACAGUACUA; antisense UAGUACUGUAUAGAUACUG; listed as RNA, chemistry not fully specified)",24.41,
"siJAK1-4627: siRNA targeting JAK1; sense strand SEQ ID NO: 26 dTdT, antisense strand SEQ ID NO: 40 dTdT (sense GCAUGUUAAUUCUCAAGAA; antisense UUCUUGAGAAUUAACAUGC; listed as RNA, chemistry not fully specified)",38.64,
"siJAK1-5026: siRNA targeting JAK1; sense strand SEQ ID NO: 27 dTdT, antisense strand SEQ ID NO: 41 dTdT (sense GAUUCAAUGUGAACGAUUA; antisense UAAUCGUUCACAUUGAAUC; listed as RNA, chemistry not fully specified)",32.40,
"siJAK1-5034: siRNA targeting JAK1; sense strand SEQ ID NO: 28, antisense strand SEQ ID NO: 42 (sense GAACGAUUACGGUCUUUAUGA; antisense AUAAAGACCGUAAUCGUUCAC; listed as RNA, chemistry not fully specified)",35.89,
"siNC: non-targeting control sequence; sense strand SEQ ID NO: 43, antisense strand SEQ ID NO: 44 (sense UUCUCCGAACGUGUCACGUTT; antisense ACGUGACACGUUCGGAGAATT; Bought control siRNA with 3' TT overhangs, chemistry not given here, further chemistry not given here) [reference compound]",100.00,100.00
